Test results as given in patent US20240150298A1, “ANTIBACTERIAL COMPOUNDS” (Blacksmith Medicines, Inc., priority 2021, published 2024).
≈ marks a conversion by molar mass, not a printed value. Where two headings read alike, the source gives them in different places.

Key:
Assay in all cases: Bacterial susceptibility testing, MIC by broth microdilution (CLSI)
Type in all cases: cell-based
E. coli ATCC25922 = conditions: Escherichia coli
Experimental: (§1) Minimal inhibitory concentrations (MIC) were determined by the broth microdilution method in accordance with the Clinical and Laboratory Standards Institute (CLSI) guidelines. In brief, organism suspensions were adjusted to a final inoculum between 3×10^5 and 7×10^5 colony-forming units (CFU)/mL. Drug dilutions and inocula were made in sterile, cation adjusted Mueller-Hinton Broth (Beckton Dickinson). In wells, an inoculum volume of 100 μL was mixed to 2 μL of DMSO with 2-fold serial dilutions of drug. All inoculated microdilution trays were incubated in ambient air at 35° C. for 18-24 h. Following incubation, the lowest concentration of the drug that prevented visible growth (OD600 nm<0.05) was recorded as the MIC. Performance of the assay was monitored by the use of laboratory quality-control strains and compounds with defined MIC spectrum, in accordance with CLSI guidelines.

P. aeruginosa 209 PAO1 = conditions: Pseudomonas aeruginosa
Experimental: as §1

K. pneumoniae ATCC13883 = conditions: Klebsiella pneumoniae
Experimental: as §1

P. aeruginosa ATCC27835 = conditions: Pseudomonas aeruginosa
Experimental: as §1

[1] = ATCC25922, broth microdilution, 35° C., 18-24 h, read-out: MIC E. coli ATCC25922
[2] = PAO1, broth microdilution, 35° C., 18-24 h, read-out: MIC P. aeruginosa 209 PAO1
[3] = ATCC13883, broth microdilution, 35° C., 18-24 h, read-out: MIC K. pneumoniae ATCC13883
[4] = ATCC27835, broth microdilution, 35° C., 18-24 h, read-out: MIC P. aeruginosa ATCC27835
[5] = ATCC25922, read-out: MIC E. coli ATCC25922
[6] = PAO1, read-out: MIC P. aeruginosa 209 PAO1
[7] = ATCC13883, read-out: MIC K. pneumoniae ATCC13883
[8] = ATCC27835, read-out: MIC P. aeruginosa ATCC27835

Row | MIC (E. coli ATCC25922; [1]) [µg/mL] | MIC (P. aeruginosa 209 PAO1; [2]) [µg/mL] | MIC (K. pneumoniae ATCC13883; [3]) [µg/mL] | MIC (P. aeruginosa ATCC27835; [4]) [µg/mL] | Structure (SMILES) | MIC (E. coli ATCC25922; [5]) [µg/mL] | MIC (P. aeruginosa 209 PAO1; [6]) [µg/mL] | MIC (K. pneumoniae ATCC13883; [7]) [µg/mL] | MIC (P. aeruginosa ATCC27835; [8]) [µg/mL]
1 | 4 (≈ 8.41 µM) | 2 (≈ 4.21 µM) | 4 (≈ 8.41 µM) | 2 (≈ 4.21 µM) | C[C@H](O)c1nccn1[C@@H](/C=C/c1ccc(-c2ccc(C3CC(C(=O)NCCO)C3)cc2)cc1)CO (stereo partly drawn) [Compound 49, 3-(4′-((S,E)-4-hydroxy-3-(2-((S)-1-hydroxyethyl)-1H-imidazol-1-yl)but-1-en-1-yl)-[1,1′-biphenyl]-4-yl)-N-(2-hydroxyethyl)cyclobutane-1-carboxamide] | – | – | – | –
2 | 0.5 (≈ 1.06 µM) | 2 (≈ 4.25 µM) | 1 (≈ 2.13 µM) | 2 (≈ 4.25 µM) | C[C@H](O)c1nccn1[C@@H](/C=C/c1ccc(-c2ccc(C3CC(C(=O)NCC#N)C3)cc2)cc1)CO (stereo partly drawn) [Compound 50, N-(cyanomethyl)-3-(4′-((S,E)-4-hydroxy-3-(2-((S)-1-hydroxyethyl)-1H-imidazol-1-yl)but-1-en-1-yl)-[1,1′-biphenyl]-4-yl)cyclobutane-1-carboxamide] | – | – | – | –
3 | 4 (≈ 9.25 µM) | 4 (≈ 9.25 µM) | 8 (≈ 18.5 µM) | 4 (≈ 9.25 µM) | C[C@H](O)c1nccn1[C@@H](/C=C/c1ccc(-c2ccc(C3CC(C(=O)O)C3)cc2)cc1)CO (stereo partly drawn) [Compound 51, 3-(4′-((S,E)-4-hydroxy-3-(2-((S)-1-hydroxyethyl)-1H-imidazol-1-yl)but-1-en-1-yl)-[1,1′-biphenyl]-4-yl)cyclobutane-1-carboxylic acid] | – | – | – | –
4 | 4 (≈ 7.91 µM) | 4 (≈ 7.91 µM) | 16 (≈ 31.6 µM) | 4 (≈ 7.91 µM) | C[C@H](O)c1nccn1[C@@H](/C=C/c1ccc(-c2ccc(C3CC(C(=O)NCC(O)CO)C3)cc2)cc1)CO (stereo partly drawn) [Compound 52, N-(2,3-dihydroxypropyl)-3-(4′-((S,E)-4-hydroxy-3-(2-((S)-1-hydroxyethyl)-1H-imidazol-1-yl)but-1-en-1-yl)-[1,1′-biphenyl]-4-yl)cyclobutane-1-carboxamide] | – | – | – | –
5 | 0.5 (≈ 0.974 µM) | 2 (≈ 3.89 µM) | 1 (≈ 1.95 µM) | 4 (≈ 7.79 µM) | C[C@H](O)c1nccn1[C@@H](/C=C/c1ccc(-c2ccc(C3CC(C(=O)NCc4ncon4)C3)cc2)cc1)CO (stereo partly drawn) [Compound 53, N-((1,2,4-oxadiazol-3-yl)methyl)-3-(4′-((S,E)-4-hydroxy-3-(2-((S)-1-hydroxyethyl)-1H-imidazol-1-yl)but-1-en-1-yl)-[1,1′-biphenyl]-4-yl)cyclobutane-1-carboxamide] | – | – | – | –
6 | 0.5 (≈ 0.975 µM) | 2 (≈ 3.9 µM) | 1 (≈ 1.95 µM) | 4 (≈ 7.8 µM) | C[C@H](O)c1nccn1[C@@H](/C=C/c1ccc(-c2ccc(C3CC(C(=O)NCc4cocn4)C3)cc2)cc1)CO (stereo partly drawn) [Compound 54, 3-(4′-((S,E)-4-hydroxy-3-(2-((S)-1-hydroxyethyl)-1H-imidazol-1-yl)but-1-en-1-yl)-[1,1′-biphenyl]-4-yl)-N-(oxazol-4-ylmethyl)cyclobutane-1-carboxamide] | – | – | – | –
7 | 0.5 (≈ 0.977 µM) | 2 (≈ 3.91 µM) | 2 (≈ 3.91 µM) | 2 (≈ 3.91 µM) | C[C@H](O)c1nccn1[C@@H](/C=C/c1ccc(-c2ccc(C3CC(C(=O)NCc4c[nH]cn4)C3)cc2)cc1)CO (stereo partly drawn) [Compound 55, N-((1H-imidazol-4-yl)methyl)-3-(4′-((S,E)-4-hydroxy-3-(2-((S)-1-hydroxyethyl)-1H-imidazol-1-yl)but-1-en-1-yl)-[1,1′-biphenyl]-4-yl)cyclobutane-1-carboxamide] | – | – | – | –
8 | 0.25 (≈ 0.548 µM) | 2 (≈ 4.38 µM) | 0.5 (≈ 1.1 µM) | 4 (≈ 8.76 µM) | C[C@H](O)c1nccn1[C@@H](/C=C/c1ccc(-c2ccc(C3CC(CNCC#N)C3)cc2)cc1)CO (stereo partly drawn) [Compound 56, 2-(((3-(4′-((S,E)-4-hydroxy-3-(2-((S)-1-hydroxyethyl)-1H-imidazol-1-yl)but-1-en-1-yl)-[1,1′-biphenyl]-4-yl)cyclobutyl)methyl)amino) acetonitrile] | – | – | – | –
9 | 0.25 (≈ 0.461 µM) | 4 (≈ 7.37 µM) | 1 (≈ 1.84 µM) | 4 (≈ 7.37 µM) | C[C@H](O)c1nccn1[C@@H](/C=C/c1ccc(-c2ccc(C3CC(CNCc4noc(C(N)=O)n4)C3)cc2)cc1)CO (stereo partly drawn) [Compound 57, 3-((((3-(4′-((S,E)-4-hydroxy-3-(2-((S)-1-hydroxyethyl)-1H-imidazol-1-yl)but-1-en-1-yl)-[1,1′-biphenyl]-4-yl)cyclobutyl)methyl)amino)methyl)-1,2,4-oxadiazole-5-carboxamide] | – | – | – | –
10 | 1 (≈ 1.87 µM) | 4 (≈ 7.47 µM) | 2 (≈ 3.73 µM) | 8 (≈ 14.9 µM) | C[C@H](O)c1nccn1[C@@H](/C=C/c1ccc(-c2ccc(C3CC(CN4CC(S(C)(=O)=O)C4)C3)cc2)cc1)CO (stereo partly drawn) [Compound 58, (S,E)-2-(2-((S)-1-hydroxyethyl)-1H-imidazol-1-yl)-4-(4′-(3-((3-(methylsulfonyl)azetidin-1-yl)methyl)cyclobutyl)-[1,1′-biphenyl]-4-yl)but-3-en-1-ol] | – | – | – | –
11 | 2 (≈ 4.11 µM) | 2 (≈ 4.11 µM) | 4 (≈ 8.22 µM) | 4 (≈ 8.22 µM) | C[C@H](O)c1nccn1[C@@H](/C=C/c1ccc(-c2ccc(C3CC(CNC(C#N)CO)C3)cc2)cc1)CO (stereo partly drawn) [Compound 59, 3-hydroxy-2-(((3-(4′-((S,E)-4-hydroxy-3-(2-((S)-1-hydroxyethyl)-1H-imidazol-1-yl)but-1-en-1-yl)-[1,1′-biphenyl]-4-yl)cyclobutyl)methyl)amino)propane nitrile] | – | – | – | –
12 | 8 (≈ 16.3 µM) | 4 (≈ 8.14 µM) | 16 (≈ 32.5 µM) | 4 (≈ 8.14 µM) | C[C@H](O)c1nccn1[C@@H](/C=C/c1ccc(-c2ccc(C3CC(CNCC(O)CO)C3)cc2)cc1)CO (stereo partly drawn) [Compound 60, 3-(((3-(4′-((S,E)-4-hydroxy-3-(2-((S)-1-hydroxyethyl)-1H-imidazol-1-yl)but-1-en-1-yl)-[1,1′-biphenyl]-4-yl)cyclobutyl)methyl)amino) propane-1,2-diol] | – | – | – | –
13 | 2 (≈ 4.33 µM) | 4 (≈ 8.67 µM) | 8 (≈ 17.3 µM) | 4 (≈ 8.67 µM) | C[C@H](O)c1nccn1[C@@H](/C=C/c1ccc(-c2ccc(C3CC(CNCCO)C3)cc2)cc1)CO (stereo partly drawn) [Compound 61, (S,E)-2-(2-((S)-1-hydroxyethyl)-1H-imidazol-1-yl)-4-(4′-(3-(((2-hydroxyethyl)amino)methyl)cyclobutyl)-[1,1′-biphenyl]-4-yl) but-3-en-1-ol] | – | – | – | –
14 | – | – | – | – | C[C@H](O)c1nccn1[C@@H](/C=C/c1ccc(-c2ccc([C@H]3C[C@H](NS(C)(=O)=O)C3)cc2)cc1)CO [Compound 62, N-((1S,3r)-3-(4′-((S,E)-4-hydroxy-3-(2-((S)-1-hydroxyethyl)-1H-imidazol-1-yl)but-1-en-1-yl)-[1,1′-biphenyl]-4-yl)cyclobutyl)methanesulfonamide] | 1 (≈ 2.08 µM) | 1 (≈ 2.08 µM) | 0.5 (≈ 1.04 µM) | 2 (≈ 4.15 µM)
15 | – | – | – | – | C[C@H](O)c1nccn1[C@@H](/C=C/c1ccc(-c2ccc([C@H]3C[C@H](NC(=O)CS(C)(=O)=O)C3)cc2)cc1)CO [Compound 63, N-((1S,3r)-3-(4′-((S,E)-4-hydroxy-3-(2-((S)-1-hydroxyethyl)-1H-imidazol-1-yl)but-1-en-1-yl)-[1,1′-biphenyl]-4-yl)cyclobutyl)-2-(methylsulfonyl)acetamide] | 2 (≈ 3.82 µM) | 2 (≈ 3.82 µM) | 4 (≈ 7.64 µM) | 4 (≈ 7.64 µM)
16 | – | – | – | – | C[C@H](O)c1nccn1[C@@H](/C=C/c1ccc(-c2ccc([C@H]3C[C@H](NC(=O)CO)C3)cc2)cc1)CO [Compound 64, 2-hydroxy-N-((1S,3r)-3-(4′-((S,E)-4-hydroxy-3-(2-((S)-1-hydroxyethyl)-1H-imidazol-1-yl)but-1-en-1-yl)-[1,1′-biphenyl]-4-yl)cyclobutyl)acetamide] | 1 (≈ 2.17 µM) | 1 (≈ 2.17 µM) | 2 (≈ 4.33 µM) | 2 (≈ 4.33 µM)
17 | – | – | – | – | C[C@H](O)c1nccn1[C@@H](/C=C/c1ccc(-c2ccc([C@H]3C[C@H](NC(=O)CC#N)C3)cc2)cc1)CO [Compound 65, 2-cyano-N-((1S,3r)-3-(4′-((S,E)-4-hydroxy-3-(2-((S)-1-hydroxyethyl)-1H-imidazol-1-yl)but-1-en-1-yl)-[1,1′-biphenyl]-4-yl)cyclobutyl)acetamide] | 0.5 (≈ 1.06 µM) | 2 (≈ 4.25 µM) | 1 (≈ 2.13 µM) | 2 (≈ 4.25 µM)
18 | – | – | – | – | C[C@H](O)c1nccn1[C@@H](/C=C/c1ccc(-c2ccc([C@H]3C[C@H](NC(=O)CN(C)C)C3)cc2)cc1)CO [Compound 66, 2-(dimethylamino)-N-((1S,3r)-3-(4′-((S,E)-4-hydroxy-3-(2-((S)-1-hydroxyethyl)-1H-imidazol-1-yl)but-1-en-1-yl)-[1,1′-biphenyl]-4-yl)cyclobutyl)acetamide] | 4 (≈ 8.19 µM) | 4 (≈ 8.19 µM) | 8 (≈ 16.4 µM) | 4 (≈ 8.19 µM)
19 | 0.5 (≈ 1.12 µM) | 2 (≈ 4.48 µM) | 1 (≈ 2.24 µM) | 2 (≈ 4.48 µM) | COC(=O)C1CC(c2ccc(-c3ccc(/C=C/[C@@H](CO)n4ccnc4[C@H](C)O)cc3)cc2)C1 (stereo partly drawn) [Compound 67, methyl 3-(4′-((S,E)-4-hydroxy-3-(2-((S)-1-hydroxyethyl)-1H-imidazol-1-yl)but-1-en-1-yl)-[1,1′-biphenyl]-4-yl)cyclobutane-1-carboxylate] | – | – | – | –
